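Compound exposure: 48 hours, 5 concentrations, 96-well plates. TGI denotes the concentration required for complete inhibition of growth.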
How the values were obtained:
Assay in all cases: DTP human tumour cell line panel, 48 h
[1] = test system: OVCAR-4 ovarian
[2] = test system: SF-268 CNS
[3] = test system: SK-OV-3 ovarian
[4] = test system: UO-31 renal
[5] = test system: UACC-62 melanoma
[6] = test system: RXF 393 renal
[7] = test system: RPMI-8226 leukemia
[8] = test system: SW-620 colon
[9] = test system: SF-295 CNS
[10] = test system: CAKI-1 renal
[11] = test system: UACC-257 melanoma
[12] = test system: A498 renal
[13] = test system: SK-MEL-5 melanoma
[14] = test system: MCF7 breast
[15] = test system: HCT-15 colon
[16] = test system: CCRF-CEM leukemia
[17] = test system: HOP-62 NSCLC
[18] = test system: HS 578T breast
[19] = test system: SNB-19 CNS
[20] = test system: MALME-3M melanoma
[21] = test system: BT-549 breast
[22] = test system: M14 melanoma
[23] = test system: MDA-MB-435
[24] = test system: NCI-H522 lung
[25] = test system: LOX IMVI melanoma
[26] = test system: K-562 leukemia
[27] = test system: OVCAR-5 ovarian
[28] = test system: SK-MEL-28 melanoma
[29] = test system: NCI-H23 lung
[30] = test system: HT29 colon
[31] = test system: MDA-MB-231 breast
[32] = test system: EKVX NSCLC
[33] = test system: ACHN renal
[34] = test system: IGROV1 ovarian
[35] = test system: DU-145 prostate
[36] = test system: PC-3 prostate
[37] = test system: HCC-2998 colon
[38] = test system: SNB-75 CNS
[39] = test system: NCI-H460 lung
[40] = test system: HOP-92 NSCLC
[41] = test system: 786-0 renal
[42] = test system: MDA-N
[43] = test system: U251 CNS
[44] = test system: MOLT-4 leukemia
[45] = test system: COLO 205 colon
[46] = test system: HCT-116 colon
[47] = test system: T-47D breast
[48] = test system: SN12C renal
[49] = test system: OVCAR-3 ovarian
[50] = test system: SR leukemia
[51] = test system: TK-10 renal
[52] = test system: KM12 colon
[53] = test system: NCI/ADR-RES ovarian
[54] = test system: OVCAR-8 ovarian
[55] = test system: A549 NSCLC
[56] = test system: HL-60(TB) leukemia
[57] = test system: SK-MEL-2 melanoma
[58] = test system: SF-539 CNS
[59] = test system: NCI-H226 lung

## Fc1c(F)c(C(F)(F)F)c(F)c(F)c1N/N=C\c1c[nH]c2ccccc12
[1]
  TGI: 6.72 µM
[2]
  TGI: 19.4 µM
[3]
  TGI: 12.9 µM
[4]
  TGI: 3.85 µM
[5]
  TGI: 10.5 µM
[6]
  TGI: 7.93 µM
[7]
  TGI: 10.2 µM
[8]
  TGI: 12.5 µM
[9]
  TGI: 6.82 µM
[10]
  TGI: 8.14 µM
[11]
  TGI: 14.3 µM
[12]
  TGI: 15 µM
[13]
  TGI: 4.04 µM
[14]
  TGI: 10.3 µM
[15]
  TGI: 12.8 µM
[16]
  TGI: 4.73 µM
[17]
  TGI: 4.16 µM
[18]
  TGI: 28.9 µM
[19]
  TGI: 12 µM
[20]
  TGI: 16.1 µM
[21]
  TGI: 7.09 µM
[22]
  TGI: 4.21 µM
[23]
  TGI: 3.14 µM
[24]
  TGI: 5.57 µM
[25]
  TGI: 12.1 µM
[26]
  TGI: 10.5 µM
[27]
  TGI: 14.3 µM
[28]
  TGI: 20 µM
[29]
  TGI: 16.4 µM
[30]
  TGI: 6.46 µM
[31]
  TGI: 12.7 µM
[32]
  TGI: 11.9 µM
[33]
  TGI: 19.5 µM
[34]
  TGI: 10.4 µM
[35]
  TGI: 15.8 µM
[36]
  TGI: 8.01 µM
[37]
  TGI: 4.19 µM
[38]
  TGI: 6.23 µM
[39]
  TGI: 3.93 µM
[40]
  TGI: 16.5 µM
[41]
  TGI: 14.5 µM
[42]
  TGI: 3.61 µM
[43]
  TGI: 12.8 µM
[44]
  TGI: 10.3 µM
[45]
  TGI: 2.71 µM
[46]
  TGI: 14.5 µM
[47]
  TGI: 18.7 µM
[48]
  TGI: 11.8 µM
[49]
  TGI: 4.7 µM
[50]
  TGI: 9.19 µM
[51]
  TGI: 15.6 µM
[52]
  TGI: 4.06 µM
[53]
  TGI: 5.84 µM
[54]
  TGI: 21.8 µM
[55]
  TGI: 12 µM
[56]
  TGI: 9.25 µM
[57]
  TGI: 8.81 µM

## CCOC(=O)C(c1c[nH]c2ccccc12)(c1c[nH]c2ccccc12)c1c[nH]c2ccccc12
[2]
  TGI: > 100 µM
[3]
  TGI: > 100 µM
[4]
  TGI: > 100 µM
[5]
  TGI: > 100 µM
[6]
  TGI: 87.5 µM
[7]
  TGI: 45.7 µM
[8]
  TGI: 75.9 µM
[9]
  TGI: > 100 µM
[10]
  TGI: > 100 µM
[58]
  TGI: > 100 µM
[11]
  TGI: > 100 µM
[12]
  TGI: > 100 µM
[13]
  TGI: > 100 µM
[14]
  TGI: 90.2 µM
[15]
  TGI: > 100 µM
[16]
  TGI: 58.9 µM
[17]
  TGI: > 100 µM
[18]
  TGI: 76.2 µM
[19]
  TGI: > 100 µM
[20]
  TGI: 78.1 µM
[21]
  TGI: > 100 µM
[22]
  TGI: > 100 µM
[23]
  TGI: 76.7 µM
[24]
  TGI: 80.1 µM
[25]
  TGI: > 100 µM
[26]
  TGI: 46.8 µM
[27]
  TGI: > 100 µM
[28]
  TGI: > 100 µM
[29]
  TGI: > 100 µM
[30]
  TGI: > 100 µM
[31]
  TGI: > 100 µM
[32]
  TGI: > 100 µM
[33]
  TGI: > 100 µM
[34]
  TGI: > 100 µM
[35]
  TGI: > 100 µM
[36]
  TGI: 71.2 µM
[37]
  TGI: 45.3 µM
[38]
  TGI: 88.5 µM
[39]
  TGI: > 100 µM
[40]
  TGI: > 100 µM
[41]
  TGI: > 100 µM
[42]
  TGI: > 100 µM
[43]
  TGI: > 100 µM
[44]
  TGI: 40.8 µM
[45]
  TGI: 39.2 µM
[46]
  TGI: > 100 µM
[47]
  TGI: 54.2 µM
[48]
  TGI: > 100 µM
[49]
  TGI: > 100 µM
[50]
  TGI: 80 µM
[51]
  TGI: > 100 µM
[52]
  TGI: 98.7 µM
[53]
  TGI: > 100 µM
[54]
  TGI: > 100 µM
[55]
  TGI: > 100 µM
[56]
  TGI: 43.9 µM
[57]
  TGI: 59.7 µM

## CC(C)=CCOc1cc(NC(=S)c2ccoc2C)ccc1Cl
[1]
  TGI: > 100 µM
[2]
  TGI: > 100 µM
[3]
  TGI: > 100 µM
[4]
  TGI: > 100 µM
[5]
  TGI: > 100 µM
[6]
  TGI: > 100 µM
[7]
  TGI: > 100 µM
[8]
  TGI: > 100 µM
[9]
  TGI: > 100 µM
[10]
  TGI: > 100 µM
[58]
  TGI: > 100 µM
[11]
  TGI: > 100 µM
[12]
  TGI: > 100 µM
[13]
  TGI: > 100 µM
[14]
  TGI: > 100 µM
[15]
  TGI: > 100 µM
[16]
  TGI: > 100 µM
[17]
  TGI: > 100 µM
[18]
  TGI: > 100 µM
[19]
  TGI: > 100 µM
[20]
  TGI: > 100 µM
[21]
  TGI: > 100 µM
[23]
  TGI: > 100 µM
[24]
  TGI: > 100 µM
[25]
  TGI: > 100 µM
[27]
  TGI: > 100 µM
[28]
  TGI: > 100 µM
[29]
  TGI: > 100 µM
[30]
  TGI: > 100 µM
[31]
  TGI: > 100 µM
[32]
  TGI: > 100 µM
[33]
  TGI: > 100 µM
[34]
  TGI: > 100 µM
[35]
  TGI: > 100 µM
[36]
  TGI: > 100 µM
[37]
  TGI: > 100 µM
[38]
  TGI: 63.9 µM
[39]
  TGI: > 100 µM
[40]
  TGI: > 100 µM
[41]
  TGI: > 100 µM
[42]
  TGI: > 100 µM
[43]
  TGI: > 100 µM
[44]
  TGI: > 100 µM
[45]
  TGI: > 100 µM
[59]
  TGI: > 100 µM
[46]
  TGI: > 100 µM
[47]
  TGI: > 100 µM
[48]
  TGI: > 100 µM
[49]
  TGI: > 100 µM
[50]
  TGI: > 100 µM
[51]
  TGI: > 100 µM
[52]
  TGI: > 100 µM
[53]
  TGI: > 100 µM
[54]
  TGI: > 100 µM
[55]
  TGI: > 100 µM
[57]
  TGI: > 100 µM

## Cc1nc2sc(CCl)nn2c(=O)c1Cl
[1]
  TGI: 29.7 µM
[2]
  TGI: 33.4 µM
[3]
  TGI: 28.1 µM
[4]
  TGI: 27.6 µM
[5]
  TGI: 36.2 µM
[6]
  TGI: 11 µM
[7]
  TGI: 24.4 µM
[8]
  TGI: 25.6 µM
[9]
  TGI: 31.1 µM
[10]
  TGI: 24.8 µM
[58]
  TGI: 31.3 µM
[11]
  TGI: 29.7 µM
[13]
  TGI: 18.7 µM
[14]
  TGI: 18.1 µM
[15]
  TGI: 23.8 µM
[16]
  TGI: 24.9 µM
[17]
  TGI: 32.1 µM
[18]
  TGI: 47.3 µM
[19]
  TGI: 32.3 µM
[20]
  TGI: 24.9 µM
[21]
  TGI: 15.6 µM
[22]
  TGI: 26.9 µM
[23]
  TGI: 18.3 µM
[24]
  TGI: 12.4 µM
[25]
  TGI: 7.34 µM
[26]
  TGI: 28.1 µM
[27]
  TGI: 28.7 µM
[28]
  TGI: 27.3 µM
[29]
  TGI: 33.3 µM
[30]
  TGI: 26.2 µM
[31]
  TGI: 36.4 µM
[32]
  TGI: 27.7 µM
[33]
  TGI: 29.3 µM
[34]
  TGI: 34.8 µM
[35]
  TGI: 29.7 µM
[36]
  TGI: 25.1 µM
[37]
  TGI: 37.7 µM
[38]
  TGI: 24.7 µM
[39]
  TGI: 25.3 µM
[40]
  TGI: 18.7 µM
[41]
  TGI: 22.4 µM
[42]
  TGI: 24.8 µM
[43]
  TGI: 19.2 µM
[44]
  TGI: 26.7 µM
[45]
  TGI: 32.2 µM
[59]
  TGI: 31.8 µM
[46]
  TGI: 26.2 µM
[47]
  TGI: 28.3 µM
[48]
  TGI: 26.6 µM
[49]
  TGI: 29.5 µM
[50]
  TGI: 26.2 µM
[51]
  TGI: 25 µM
[52]
  TGI: 25.2 µM
[53]
  TGI: 50.8 µM
[54]
  TGI: 31.4 µM
[55]
  TGI: 29.6 µM
[56]
  TGI: 29.8 µM
[57]
  TGI: 27.7 µM
